The source of these data is ChEMBL document CHEMBL1909046, “DrugMatrix in vitro pharmacology data”.

SMILES strings stand for the structures.

Vascular endothelial growth factor receptor 1, sequence (P17948 whole entry): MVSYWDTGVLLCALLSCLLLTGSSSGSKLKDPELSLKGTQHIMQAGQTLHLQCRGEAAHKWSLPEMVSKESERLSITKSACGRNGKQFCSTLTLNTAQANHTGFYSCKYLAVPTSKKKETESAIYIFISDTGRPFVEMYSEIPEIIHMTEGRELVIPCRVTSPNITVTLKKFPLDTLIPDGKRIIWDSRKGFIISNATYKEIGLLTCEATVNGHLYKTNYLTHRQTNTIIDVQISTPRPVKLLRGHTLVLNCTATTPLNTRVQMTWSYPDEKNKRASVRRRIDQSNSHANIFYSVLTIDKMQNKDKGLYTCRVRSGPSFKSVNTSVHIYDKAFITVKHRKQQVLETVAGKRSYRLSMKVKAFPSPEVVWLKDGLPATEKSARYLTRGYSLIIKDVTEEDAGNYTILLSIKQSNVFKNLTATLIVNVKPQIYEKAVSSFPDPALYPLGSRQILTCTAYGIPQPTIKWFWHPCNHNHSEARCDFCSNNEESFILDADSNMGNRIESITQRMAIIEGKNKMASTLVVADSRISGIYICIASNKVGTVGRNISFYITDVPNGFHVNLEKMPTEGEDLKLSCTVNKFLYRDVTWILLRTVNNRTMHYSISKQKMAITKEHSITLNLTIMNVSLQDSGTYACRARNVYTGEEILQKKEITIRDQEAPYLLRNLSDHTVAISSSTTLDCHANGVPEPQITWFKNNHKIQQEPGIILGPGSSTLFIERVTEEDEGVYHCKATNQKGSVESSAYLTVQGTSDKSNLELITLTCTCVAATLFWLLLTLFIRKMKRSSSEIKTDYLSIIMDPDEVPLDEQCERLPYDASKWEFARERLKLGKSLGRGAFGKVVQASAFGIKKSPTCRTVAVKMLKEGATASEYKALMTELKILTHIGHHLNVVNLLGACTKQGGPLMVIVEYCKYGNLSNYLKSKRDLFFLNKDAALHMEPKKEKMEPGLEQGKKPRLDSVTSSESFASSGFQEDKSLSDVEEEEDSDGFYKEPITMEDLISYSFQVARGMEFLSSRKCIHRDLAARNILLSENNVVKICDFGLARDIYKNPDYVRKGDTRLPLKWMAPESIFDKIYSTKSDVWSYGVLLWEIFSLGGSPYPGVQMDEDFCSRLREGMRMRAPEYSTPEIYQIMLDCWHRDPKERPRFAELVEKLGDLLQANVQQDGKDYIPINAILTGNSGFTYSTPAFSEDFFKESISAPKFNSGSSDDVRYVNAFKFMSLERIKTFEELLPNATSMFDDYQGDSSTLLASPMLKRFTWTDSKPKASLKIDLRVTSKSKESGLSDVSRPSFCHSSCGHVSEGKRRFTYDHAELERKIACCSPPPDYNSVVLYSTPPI

The first test concerns the target Vascular endothelial growth factor receptor 1 (Homo sapiens, UniProt P17948). Nature of the test: biochemical. It counts as cell-based, HUVEC. Conditions: huvec. Also: in other assays of this panel Not Active means under 50% inhibition at 10 µM.
For the compound `C[C@]12C=CC(=O)C=C1CC[C@@H]1[C@@H]2[C@@H](O)C[C@@]2(C)[C@H]1CC[C@]2(O)C(=O)CO` [PREDNISOLONE], the IC50 entry was “Not Active”.
In the case of `CC(=O)[C@H]1[C@H](C#N)C[C@H]2[C@@H]3CC=C4C[C@@H](O)CC[C@]4(C)[C@H]3CC[C@@]21C` [PREGNENOLONE CARBONITRILE], the IC50 entry is listed as “Not Active”.
Consider `CCCN(CCC)S(=O)(=O)c1ccc(C(=O)O)cc1` [PROBENECID], for which the IC50 result is listed as “Not Active”.
Regarding `CCCNCC(O)COc1ccccc1C(=O)CCc1ccccc1` (centres undefined) [PROPAFENONE], the IC50 entry is reported as “Not Active”.
In the case of `CCCOc1ccc(C(=O)OCCN(CC)CC)cc1N` [PROPARACAINE], the IC50 entry is recorded as “Not Active”.
`CC(C)c1cccc(C(C)C)c1O` [PROPOFOL]: the IC50 entry is recorded as “Not Active”.

A further test deals with T1, Angiotensin-converting enzyme (Oryctolagus cuniculus, UniProt P12822).
T1 sequence (P12822 whole entry): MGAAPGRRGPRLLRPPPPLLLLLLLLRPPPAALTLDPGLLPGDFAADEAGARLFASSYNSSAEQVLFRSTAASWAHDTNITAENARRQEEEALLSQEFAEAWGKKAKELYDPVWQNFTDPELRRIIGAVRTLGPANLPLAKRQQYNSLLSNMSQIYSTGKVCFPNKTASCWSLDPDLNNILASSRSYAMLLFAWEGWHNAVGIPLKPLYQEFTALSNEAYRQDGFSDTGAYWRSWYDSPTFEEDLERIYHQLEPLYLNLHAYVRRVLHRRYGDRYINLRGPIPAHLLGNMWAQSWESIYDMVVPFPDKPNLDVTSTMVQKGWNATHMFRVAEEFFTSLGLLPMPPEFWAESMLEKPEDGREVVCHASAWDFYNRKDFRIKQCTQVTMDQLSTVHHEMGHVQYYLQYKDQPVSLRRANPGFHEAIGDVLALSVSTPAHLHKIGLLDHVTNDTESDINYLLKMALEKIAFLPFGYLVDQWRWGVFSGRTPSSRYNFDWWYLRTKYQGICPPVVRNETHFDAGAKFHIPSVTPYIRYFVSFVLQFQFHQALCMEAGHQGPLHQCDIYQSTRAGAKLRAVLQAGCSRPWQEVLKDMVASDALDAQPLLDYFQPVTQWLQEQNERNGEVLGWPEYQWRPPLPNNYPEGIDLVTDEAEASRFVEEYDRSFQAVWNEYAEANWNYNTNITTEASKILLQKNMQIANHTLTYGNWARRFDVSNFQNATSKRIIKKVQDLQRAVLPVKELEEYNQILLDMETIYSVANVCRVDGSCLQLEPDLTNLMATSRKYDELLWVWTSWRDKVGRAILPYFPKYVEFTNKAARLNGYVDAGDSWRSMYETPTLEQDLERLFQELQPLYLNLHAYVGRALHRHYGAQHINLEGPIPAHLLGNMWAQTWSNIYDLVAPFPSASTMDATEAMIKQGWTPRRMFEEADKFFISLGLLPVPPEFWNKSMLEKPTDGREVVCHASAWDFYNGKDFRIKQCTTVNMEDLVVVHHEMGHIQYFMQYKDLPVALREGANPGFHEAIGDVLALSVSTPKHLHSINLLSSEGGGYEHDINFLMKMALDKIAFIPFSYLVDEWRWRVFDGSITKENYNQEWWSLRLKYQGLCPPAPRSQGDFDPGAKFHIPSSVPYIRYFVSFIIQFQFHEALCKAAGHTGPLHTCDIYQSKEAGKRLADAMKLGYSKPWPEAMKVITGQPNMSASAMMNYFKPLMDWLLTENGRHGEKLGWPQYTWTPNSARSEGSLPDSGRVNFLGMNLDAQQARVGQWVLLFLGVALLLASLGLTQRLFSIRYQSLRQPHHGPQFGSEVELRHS
Test: not given
Format: tissue-based, Lung.
Settings: not given
Take `C[C@]12C=CC(=O)C=C1CC[C@@H]1[C@@H]2[C@@H](O)C[C@@]2(C)[C@H]1CC[C@]2(O)C(=O)CO` [PREDNISOLONE]: the IC50 entry is recorded as “Not Active”.
`CC(=O)[C@H]1[C@H](C#N)C[C@H]2[C@@H]3CC=C4C[C@@H](O)CC[C@]4(C)[C@H]3CC[C@@]21C` [PREGNENOLONE CARBONITRILE]: the IC50 result is recorded as “Not Active”.
Regarding `CCCN(CCC)S(=O)(=O)c1ccc(C(=O)O)cc1` [PROBENECID], the IC50 entry was “Not Active”.
As for `CCCNCC(O)COc1ccccc1C(=O)CCc1ccccc1` (centres undefined) [PROPAFENONE], the IC50 result is “Not Active”.
On to `CCCOc1ccc(C(=O)OCCN(CC)CC)cc1N` [PROPARACAINE], for which the IC50 result is “Not Active”.
Turning to `CC(C)c1cccc(C(C)C)c1O` [PROPOFOL], the IC50 entry is listed as “Not Active”.

Tested on in the next test: not listed separately
The test is described as follows: DRUGMATRIX: Serotonin (5-Hydroxytryptamine) 5-HT3 radioligand binding (ligand: [3H] GR-65630). Conditions: hek293; Not Active = under 50% inhibition at 10 µM. Format: cell membranes, Membrane.
Regarding `C[C@]12C=CC(=O)C=C1CC[C@@H]1[C@@H]2[C@@H](O)C[C@@]2(C)[C@H]1CC[C@]2(O)C(=O)CO` [PREDNISOLONE], the IC50 entry is “Not Active” and the Ki entry is “Not Active”.
`CC(=O)[C@H]1[C@H](C#N)C[C@H]2[C@@H]3CC=C4C[C@@H](O)CC[C@]4(C)[C@H]3CC[C@@]21C` [PREGNENOLONE CARBONITRILE]: the IC50 entry is on record as “Not Active” and the Ki result is “Not Active”.
On to `CCCN(CCC)S(=O)(=O)c1ccc(C(=O)O)cc1` [PROBENECID], for which the IC50 entry is “Not Active” and the Ki result is listed as “Not Active”.
With `CCCNCC(O)COc1ccccc1C(=O)CCc1ccccc1` (centres undefined) [PROPAFENONE], the IC50 result was “Not Active” and the Ki result is reported as “Not Active”.
For the compound `CCCOc1ccc(C(=O)OCCN(CC)CC)cc1N` [PROPARACAINE], the IC50 entry is reported as “Not Active” and the Ki entry is “Not Active”.
Turning to `CC(C)c1cccc(C(C)C)c1O` [PROPOFOL], the IC50 entry is given as “Not Active” and the Ki result was “Not Active”.

Tested on in another test: not listed separately
The test is described as follows: DRUGMATRIX: Phosphodiesterase PDE3 enzyme inhibition (substrate: [3H]cAMP + cAMP). It counts as tissue-based, Homo sapiens. To be noted: platelet; Not Active = under 50% inhibition at 10 µM.
For the compound `C[C@]12C=CC(=O)C=C1CC[C@@H]1[C@@H]2[C@@H](O)C[C@@]2(C)[C@H]1CC[C@]2(O)C(=O)CO` [PREDNISOLONE], the IC50 result is on record as “Not Active” and the Ki entry was “Not Active”.
As for `CC(=O)[C@H]1[C@H](C#N)C[C@H]2[C@@H]3CC=C4C[C@@H](O)CC[C@]4(C)[C@H]3CC[C@@]21C` [PREGNENOLONE CARBONITRILE], the IC50 entry is listed as “Not Active” and the Ki result was “Not Active”.
For `CCCN(CCC)S(=O)(=O)c1ccc(C(=O)O)cc1` [PROBENECID], the IC50 entry is recorded as “Not Active” and the Ki entry was “Not Active”.
In the case of `CCCNCC(O)COc1ccccc1C(=O)CCc1ccccc1` (centres undefined) [PROPAFENONE], the IC50 result is “Not Active” and the Ki result was “Not Active”.
For `CCCOc1ccc(C(=O)OCCN(CC)CC)cc1N` [PROPARACAINE], the IC50 entry was “Not Active” and the Ki entry is “Not Active”.
With `CC(C)c1cccc(C(C)C)c1O` [PROPOFOL], the IC50 entry is recorded as “Not Active” and the Ki entry is “Not Active”.

In a further test the target is T2, C-X-C chemokine receptor type 1 (Homo sapiens, UniProt P25024). Also: in other assays of this panel Not Active means under 50% inhibition at 10 µM.
T2 sequence (P25024 whole entry): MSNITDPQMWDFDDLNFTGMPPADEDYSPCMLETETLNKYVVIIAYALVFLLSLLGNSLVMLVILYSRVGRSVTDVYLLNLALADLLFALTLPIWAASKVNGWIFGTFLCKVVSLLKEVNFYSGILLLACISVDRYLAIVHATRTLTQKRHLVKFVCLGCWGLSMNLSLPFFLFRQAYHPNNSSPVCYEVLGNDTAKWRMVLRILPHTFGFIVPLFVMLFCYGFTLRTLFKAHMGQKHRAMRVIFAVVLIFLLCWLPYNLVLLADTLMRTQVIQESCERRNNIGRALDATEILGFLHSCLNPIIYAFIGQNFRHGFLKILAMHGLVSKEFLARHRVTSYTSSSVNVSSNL
Test: not given
Settings: not given
On to `C[C@]12C=CC(=O)C=C1CC[C@@H]1[C@@H]2[C@@H](O)C[C@@]2(C)[C@H]1CC[C@]2(O)C(=O)CO` [PREDNISOLONE], for which the IC50 entry is “Not Active”.
On to `CC(=O)[C@H]1[C@H](C#N)C[C@H]2[C@@H]3CC=C4C[C@@H](O)CC[C@]4(C)[C@H]3CC[C@@]21C` [PREGNENOLONE CARBONITRILE], for which the IC50 entry was “Not Active”.
For `CCCN(CCC)S(=O)(=O)c1ccc(C(=O)O)cc1` [PROBENECID], the IC50 entry is given as “Not Active”.
Still for that read-out and setting: the entry for `CCCNCC(O)COc1ccccc1C(=O)CCc1ccccc1` (centres undefined) [PROPAFENONE] is “Not Active”; for `CCCOc1ccc(C(=O)OCCN(CC)CC)cc1N` [PROPARACAINE] it is “Not Active”; for `CC(C)c1cccc(C(C)C)c1O` [PROPOFOL] it is “Not Active”.

The target of a further test is T3, Type-2 angiotensin II receptor (Homo sapiens, UniProt P50052). Also: in other assays of this panel Not Active means under 50% inhibition at 10 µM.
T3 sequence (P50052 whole entry): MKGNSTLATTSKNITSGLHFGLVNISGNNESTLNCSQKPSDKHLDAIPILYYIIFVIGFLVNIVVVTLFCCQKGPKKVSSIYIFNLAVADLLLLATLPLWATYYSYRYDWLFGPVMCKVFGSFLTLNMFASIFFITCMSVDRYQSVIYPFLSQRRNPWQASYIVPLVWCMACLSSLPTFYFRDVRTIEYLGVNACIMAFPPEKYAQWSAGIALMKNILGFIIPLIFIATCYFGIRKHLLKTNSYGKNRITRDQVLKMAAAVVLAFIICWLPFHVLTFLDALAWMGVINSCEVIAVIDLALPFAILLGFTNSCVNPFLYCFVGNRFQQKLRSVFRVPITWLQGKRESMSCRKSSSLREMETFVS
Test: not given
It counts as cell-based. To be noted: cho-k1.
For `C[C@]12C=CC(=O)C=C1CC[C@@H]1[C@@H]2[C@@H](O)C[C@@]2(C)[C@H]1CC[C@]2(O)C(=O)CO` [PREDNISOLONE], the IC50 result was “Not Active”.
`CC(=O)[C@H]1[C@H](C#N)C[C@H]2[C@@H]3CC=C4C[C@@H](O)CC[C@]4(C)[C@H]3CC[C@@]21C` [PREGNENOLONE CARBONITRILE]: the IC50 entry is recorded as “Not Active”.
As for `CCCN(CCC)S(=O)(=O)c1ccc(C(=O)O)cc1` [PROBENECID], the IC50 result is listed as “Not Active”.
Still for that read-out and setting: the entry for `CCCNCC(O)COc1ccccc1C(=O)CCc1ccccc1` (centres undefined) [PROPAFENONE] is “Not Active”.
On to `CCCOc1ccc(C(=O)OCCN(CC)CC)cc1N` [PROPARACAINE], for which the IC50 entry is “Not Active”.
The same measure, in the same setting: to `CC(C)c1cccc(C(C)C)c1O` [PROPOFOL] belongs “Not Active”.

The next test deals with T4, Adenosine receptor A1 (Homo sapiens, UniProt P30542).
T4 sequence (P30542 whole entry): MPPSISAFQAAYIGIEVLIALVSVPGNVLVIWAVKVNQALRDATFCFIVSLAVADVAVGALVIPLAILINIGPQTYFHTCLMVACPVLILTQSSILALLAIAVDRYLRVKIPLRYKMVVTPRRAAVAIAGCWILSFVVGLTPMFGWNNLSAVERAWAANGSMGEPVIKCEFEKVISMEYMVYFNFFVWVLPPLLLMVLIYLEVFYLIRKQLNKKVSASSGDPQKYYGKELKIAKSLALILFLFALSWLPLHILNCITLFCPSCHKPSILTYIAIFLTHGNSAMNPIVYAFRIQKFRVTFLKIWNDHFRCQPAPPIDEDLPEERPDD
Test: not given
It counts as cell membranes, CHO, Membrane. Conditions: cho.
For the compound `C[C@]12C=CC(=O)C=C1CC[C@@H]1[C@@H]2[C@@H](O)C[C@@]2(C)[C@H]1CC[C@]2(O)C(=O)CO` [PREDNISOLONE], the IC50 entry is recorded as “Not Active”.
On to `CC(=O)[C@H]1[C@H](C#N)C[C@H]2[C@@H]3CC=C4C[C@@H](O)CC[C@]4(C)[C@H]3CC[C@@]21C` [PREGNENOLONE CARBONITRILE], for which the IC50 entry is listed as “Not Active”.
Same read-out and setting: to `CCCN(CCC)S(=O)(=O)c1ccc(C(=O)O)cc1` [PROBENECID] belongs “Not Active”; to `CCCNCC(O)COc1ccccc1C(=O)CCc1ccccc1` (centres undefined) [PROPAFENONE], “Not Active”; to `CCCOc1ccc(C(=O)OCCN(CC)CC)cc1N` [PROPARACAINE], “Not Active”.
Regarding `CC(C)c1cccc(C(C)C)c1O` [PROPOFOL], the IC50 entry is “Not Active”.
